Assay results as given in patent US4479943A, “3-Demethoxyistamycin B, the 2"-N-formimidoyl derivative thereof and pharmaceutical composition containing same” (Zaidan Hojin Biseibutsu Kagaku Kenkyu Kai, priority 1982, dated 1984).

Tests used:
[1] = system: Escherichia coli JR66/W677; assay: Antibacterial MIC, standard serial dilution; assay type: cell-based; settings: nutrient agar, 37° C., 17 hours, as free base
[2] = system: mice; assay: Acute toxicity, intravenous administration in mice; assay type: in vivo
[3] = system: Pseudomonas aeruginosa H11; assay: Antibacterial MIC, standard serial dilution; assay type: cell-based; settings: nutrient agar, 37° C., 17 hours, as free base
[4] = system: Escherichia coli K-12 ML1410 R81; assay: Antibacterial MIC, standard serial dilution; assay type: cell-based; settings: nutrient agar, 37° C., 17 hours, as free base
[5] = system: Escherichia coli K-12 R388; assay: Antibacterial MIC, standard serial dilution; assay type: cell-based; settings: nutrient agar, 37° C., 17 hours, as free base
[6] = system: Serratia marcescens; assay: Antibacterial MIC, standard serial dilution; assay type: cell-based; settings: nutrient agar, 37° C., 17 hours, as free base
[7] = system: Mycobacterium smegmatis ATCC 607; assay: Antibacterial MIC, standard serial dilution; assay type: cell-based; settings: nutrient agar, 37° C., 17 hours, as free base
[8] = system: Escherichia coli K-12 R5; assay: Antibacterial MIC, standard serial dilution; assay type: cell-based; settings: nutrient agar, 37° C., 17 hours, as free base
[9] = system: Staphylococcus aureus FDA 209P; assay: Antibacterial MIC, standard serial dilution; assay type: cell-based; settings: nutrient agar, 37° C., 17 hours, as free base
[10] = system: Staphylococcus epidermidis 109; assay: Antibacterial MIC, standard serial dilution; assay type: cell-based; settings: nutrient agar, 37° C., 17 hours, as free base
[11] = system: Escherichia coli K-12 LA290 R64; assay: Antibacterial MIC, standard serial dilution; assay type: cell-based; settings: nutrient agar, 37° C., 17 hours, as free base
[12] = system: Pseudomonas aeruginosa No. 12; assay: Antibacterial MIC, standard serial dilution; assay type: cell-based; settings: nutrient agar, 37° C., 17 hours, as free base
[13] = system: Pseudomonas aeruginosa K-Ps 102; assay: Antibacterial MIC, standard serial dilution; assay type: cell-based; settings: nutrient agar, 37° C., 17 hours, as free base
[14] = system: Serratia sp. SOU; assay: Antibacterial MIC, standard serial dilution; assay type: cell-based; settings: nutrient agar, 37° C., 17 hours, as free base
[15] = system: Pseudomonas maltophilia GN 907; assay: Antibacterial MIC, standard serial dilution; assay type: cell-based; settings: nutrient agar, 37° C., 17 hours, as free base
[16] = system: Salmonella enteritidis 1891; assay: Antibacterial MIC, standard serial dilution; assay type: cell-based; settings: nutrient agar, 37° C., 17 hours, as free base
[17] = system: Sarcina lutea PCI 1001; assay: Antibacterial MIC, standard serial dilution; assay type: cell-based; settings: nutrient agar, 37° C., 17 hours, as free base
[18] = system: Pseudomonas aeruginosa 99; assay: Antibacterial MIC, standard serial dilution; assay type: cell-based; settings: nutrient agar, 37° C., 17 hours, as free base
[19] = system: Klebsiella pneumoniae PCI602; assay: Antibacterial MIC, standard serial dilution; assay type: cell-based; settings: nutrient agar, 37° C., 17 hours, as free base
[20] = system: Serratia sp. 4; assay: Antibacterial MIC, standard serial dilution; assay type: cell-based; settings: nutrient agar, 37° C., 17 hours, as free base
[21] = system: Escherichia coli K-12 ML1629; assay: Antibacterial MIC, standard serial dilution; assay type: cell-based; settings: nutrient agar, 37° C., 17 hours, as free base
[22] = system: Micrococcus flavus FDA 16; assay: Antibacterial MIC, standard serial dilution; assay type: cell-based; settings: nutrient agar, 37° C., 17 hours, as free base
[23] = system: Escherichia coli K-12 LA290 R56; assay: Antibacterial MIC, standard serial dilution; assay type: cell-based; settings: nutrient agar, 37° C., 17 hours, as free base
[24] = system: Escherichia coli K-12; assay: Antibacterial MIC, standard serial dilution; assay type: cell-based; settings: nutrient agar, 37° C., 17 hours, as free base
[25] = system: Escherichia coli K-12 ML1630; assay: Antibacterial MIC, standard serial dilution; assay type: cell-based; settings: nutrient agar, 37° C., 17 hours, as free base
[26] = system: Pseudomonas aeruginosa PST1; assay: Antibacterial MIC, standard serial dilution; assay type: cell-based; settings: nutrient agar, 37° C., 17 hours, as free base
[27] = system: Klebsiella pneumoniae 22#3038; assay: Antibacterial MIC, standard serial dilution; assay type: cell-based; settings: nutrient agar, 37° C., 17 hours, as free base
[28] = system: Escherichia coli NIHJ; assay: Antibacterial MIC, standard serial dilution; assay type: cell-based; settings: nutrient agar, 37° C., 17 hours, as free base
[29] = system: Bacillus subtilis PCI 219; assay: Antibacterial MIC, standard serial dilution; assay type: cell-based; settings: nutrient agar, 37° C., 17 hours, as free base
[30] = system: Escherichia coli K-12 C600 R135; assay: Antibacterial MIC, standard serial dilution; assay type: cell-based; settings: nutrient agar, 37° C., 17 hours, as free base
[31] = system: Proteus rettgeri GN466; assay: Antibacterial MIC, standard serial dilution; assay type: cell-based; settings: nutrient agar, 37° C., 17 hours, as free base
[32] = system: Escherichia coli K-12 LA290 R55; assay: Antibacterial MIC, standard serial dilution; assay type: cell-based; settings: nutrient agar, 37° C., 17 hours, as free base
[33] = system: Escherichia coli W677; assay: Antibacterial MIC, standard serial dilution; assay type: cell-based; settings: nutrient agar, 37° C., 17 hours, as free base
[34] = system: Bacillus subtilis NRRL B-558; assay: Antibacterial MIC, standard serial dilution; assay type: cell-based; settings: nutrient agar, 37° C., 17 hours, as free base
[35] = system: Bacillus cereus ATCC 10702; assay: Antibacterial MIC, standard serial dilution; assay type: cell-based; settings: nutrient agar, 37° C., 17 hours, as free base
[36] = system: Pseudomonas aeruginosa H9; assay: Antibacterial MIC, standard serial dilution; assay type: cell-based; settings: nutrient agar, 37° C., 17 hours, as free base
[37] = system: Pseudomonas aeruginosa 21-75; assay: Antibacterial MIC, standard serial dilution; assay type: cell-based; settings: nutrient agar, 37° C., 17 hours, as free base
[38] = system: Pseudomonas aeruginosa TI-13; assay: Antibacterial MIC, standard serial dilution; assay type: cell-based; settings: nutrient agar, 37° C., 17 hours, as free base
[39] = system: Shigella dysenteriae JS11910; assay: Antibacterial MIC, standard serial dilution; assay type: cell-based; settings: nutrient agar, 37° C., 17 hours, as free base
[40] = system: Providencia sp. 2991; assay: Antibacterial MIC, standard serial dilution; assay type: cell-based; settings: nutrient agar, 37° C., 17 hours, as free base
[41] = system: Bacillus anthracis; assay type: cell-based; settings: nutrient agar, 37° C., 17 hours, as free base
[42] = system: Staphylococcus aureus Ap01; assay: Antibacterial MIC, standard serial dilution; assay type: cell-based; settings: nutrient agar, 37° C., 17 hours, as free base
[43] = system: Pseudomonas aeruginosa A3; assay: Antibacterial MIC, standard serial dilution; assay type: cell-based; settings: nutrient agar, 37° C., 17 hours, as free base
[44] = system: Salmonella typhi T-63; assay: Antibacterial MIC, standard serial dilution; assay type: cell-based; settings: nutrient agar, 37° C., 17 hours, as free base
[45] = system: Escherichia coli K-12 J5R11-2; assay: Antibacterial MIC, standard serial dilution; assay type: cell-based; settings: nutrient agar, 37° C., 17 hours, as free base
[46] = system: Proteus rettgeri GN311; assay: Antibacterial MIC, standard serial dilution; assay type: cell-based; settings: nutrient agar, 37° C., 17 hours, as free base
[47] = system: Pseudomonas aeruginosa B-13; assay: Antibacterial MIC, standard serial dilution; assay type: cell-based; settings: nutrient agar, 37° C., 17 hours, as free base
[48] = system: Escherichia coli K-12 ML1410; assay: Antibacterial MIC, standard serial dilution; assay type: cell-based; settings: nutrient agar, 37° C., 17 hours, as free base
[49] = system: Staphylococcus aureus Smith; assay: Antibacterial MIC, standard serial dilution; assay type: cell-based; settings: nutrient agar, 37° C., 17 hours, as free base
[50] = system: Proteus vulgaris 0X19; assay: Antibacterial MIC, standard serial dilution; assay type: cell-based; settings: nutrient agar, 37° C., 17 hours, as free base
[51] = system: Pseudomonas aeruginosa GN315; assay: Antibacterial MIC, standard serial dilution; assay type: cell-based; settings: nutrient agar, 37° C., 17 hours, as free base
[52] = system: Pseudomonas aeruginosa ROS 134/PU21; assay: Antibacterial MIC, standard serial dilution; assay type: cell-based; settings: nutrient agar, 37° C., 17 hours, as free base
[53] = system: Corynebacterium bovis 1810; assay: Antibacterial MIC, standard serial dilution; assay type: cell-based; settings: nutrient agar, 37° C., 17 hours, as free base
[54] = system: Escherichia coli JR225; assay: Antibacterial MIC, standard serial dilution; assay type: cell-based; settings: nutrient agar, 37° C., 17 hours, as free base
[55] = system: Providencia sp. Pv16; assay: Antibacterial MIC, standard serial dilution; assay type: cell-based; settings: nutrient agar, 37° C., 17 hours, as free base

CNCC1CCC(N)C(OC2C(N)CCC(N(C)C(=O)CNC=N)C2O)O1.O.O.O.O.O=S(=O)(O)O.O=S(=O)(O)O (centres unmarked) [DBF, 3-demethoxy-2"-N-formimidoylistamycin B]
6.25 µg/mL: MIC [30]
1.56 µg/mL: MIC [16] | MIC [25] | MIC [27] | MIC [35] | MIC [39] | MIC [40] | MIC [48]
> 100 µg/mL: MIC [15] | MIC [18] | MIC [47]
< 0.20 µg/mL: MIC [31] | MIC [34] | MIC [49] | MIC [50] | MIC [53]
12.5 µg/mL: MIC [14] | MIC [20] | MIC [38]
100 µg/mL: MIC [52]
0.20 µg/mL: MIC [10] | MIC [28] | MIC [29]
0.78 µg/mL: MIC [6] | MIC [8] | MIC [11] | MIC [19] | MIC [32] | MIC [45] | MIC [55]
100 mg/kg: tolerated dose (all treated mice) ([2]; mouse, in vivo, iv, 336 h)
low toxicity: acute toxicity ([2]; mice, intravenous, in words)
0.39 µg/mL: MIC [1] | MIC [4] | MIC [5] | MIC [7] | MIC [9] | MIC [17] | MIC [21] | MIC [22] | MIC [23] | MIC [24] | MIC [33] | MIC [41] | MIC [42] | MIC [43] | MIC [44] | MIC [46] | MIC [54]
25 µg/mL: MIC [12] | MIC [13] | MIC [26] | MIC [36]
50 µg/mL: MIC [3] | MIC [37] | MIC [51]
